Here are results for 2 compounds from ChEMBL document CHEMBL4828718, “Synthesis and Antifungal Activity Evaluation of Phloeodictine Analogues” (J Nat Prod, 2021).

One may read the MFC as the lowest tested concentration that kills the fungus rather than only halting it. Broadly, the MIC is the smallest concentration in the dilution series that meets the test's criterion for growth inhibition. The IC50 is the concentration needed to halve the response being measured.

For assay [1], the system named is Cryptococcus neoformans. In words: Fungicidal activity against Cryptococcus neoformans ATCC 90113 assessed as fungal growth inhibition incubated for 72 hrs by alamar blue assay. The class given is functional. Conditions: Cryptococcus neoformans, ATCC 90113, 72 h, read-out: MFC.
The subject of assay [2] is Pichia kudriavzevii. Nature of the assay: Fungicidal activity against Candida krusei ATCC 6258 assessed as fungal growth inhibition incubated for 18 to 24 hrs by alamar blue assay. The class given is functional. For orientation: Resazurin is reduced to fluorescent resorufin, in cell work by metabolically active cells.
Assay [3] deals with Aspergillus fumigatus. Nature of the assay: Antifungal activity against Aspergillus fumigatus ATCC 90906 assessed as fungal growth inhibition incubated for 72 hrs by alamar blue assay. The class given is functional.
Assay [4] concerns Candida albicans. Nature of the assay: Fungicidal activity against Candida albicans ATCC 90028 assessed as fungal growth inhibition incubated for 18 to 24 hrs by alamar blue assay. Type of assay: functional.
For assay [5], the system named is Vero. Nature of the assay: Cytotoxicity against African green monkey Vero cells assessed as reduction in cell viability incubated for 48 hrs by neutral red dye based assay. Also noted: species or system Chlorocebus sabaeus. Particulars: Chlorocebus sabaeus, Vero, 48 h.
For assay [6], the system named is Candida albicans. In words: Antifungal activity against Candida albicans ATCC 90028 assessed as fungal growth inhibition incubated for 18 to 24 hrs by alamar blue assay. Type of assay: functional.
Assay [7] has as its system Nakaseomyces glabratus. In words: Fungicidal activity against Candida glabrata ATCC 90030 assessed as fungal growth inhibition incubated for 18 to 24 hrs by alamar blue assay. Type of assay: functional.
Assay [8] deals with Cryptococcus neoformans. Nature of the assay: Antifungal activity against Cryptococcus neoformans ATCC 90113 assessed as fungal growth inhibition incubated for 72 hrs by alamar blue assay. The class given is functional. Particulars: Cryptococcus neoformans, ATCC 90113, 72 h, read-out: MIC.
The subject of assay [9] is Aspergillus fumigatus. Nature of the assay: Fungicidal activity against Aspergillus fumigatus ATCC 90906 assessed as fungal growth inhibition incubated for 72 hrs by alamar blue assay. Type of assay: functional.
Assay [10] concerns Nakaseomyces glabratus. In words: Antifungal activity against Candida glabrata ATCC 90030 assessed as fungal growth inhibition incubated for 18 to 24 hrs by alamar blue assay. The class given is functional.
The test system of assay [11] is Pichia kudriavzevii. In words: Antifungal activity against Candida krusei ATCC 6258 assessed as fungal growth inhibition incubated for 18 to 24 hrs by alamar blue assay. Type of assay: functional.

Molecules are shown by their SMILES. Activity calls are given as the source filed them.

Consider `CCCCCCCCCCCCCCC1(O)C(C)=C(C)C2=[N+](CC(=O)NCCOCCOCCOCCNC(=O)CCCC[C@@H]3SC[C@@H]4NC(=O)N[C@@H]43)CCCN21` (some centres not stated), for which the MFC in [1] came to 4.5 µM. Moreover, the MFC entry in [2] (time 18-24 hrs), in assay [4] (time 18-24 hrs), in assay [7] (time 18-24 hrs) and in [9] was “inactive” in each case. Besides, the MIC entry in assay [3], in [6] (time 18-24 hrs), in [10] (time 18-24 hrs) and in assay [11] (time 18-24 hrs) was “inactive” in each case. For the same compound, the half-inhibitory concentration (IC50) in assay [5] is greater than 28 µM. Moreover, the MIC in assay [8] is 3.7 µM.

`CCCCCCCCCCCCCCC1(O)C(C)=C(C)C2=[N+](Cc3cccc(OC)c3)CCCN21` (configuration not stated): the MFC was determined as 1.1 µM in assay [1]; 3 µM in assay [2] (Pichia kudriavzevii, ATCC 6258, time 18-24 hrs, read-out: MFC); 3 µM in [4] (Candida albicans, ATCC 90028, time 18-24 hrs, read-out: MFC); 2.1 µM in assay [7] (Nakaseomyces glabratus, ATCC 90030, time 18-24 hrs, read-out: MFC); 3 µM in [9] (Aspergillus fumigatus, ATCC 90906, 72 h, read-out: MFC). Besides, the minimum inhibitory concentration (MIC) in assay [3] (Aspergillus fumigatus, ATCC 90906, 72 h, read-out: MIC) stood at 3 µM; in [6] (Candida albicans, ATCC 90028, time 18-24 hrs, read-out: MIC), 3 µM; in [8], 1.1 µM; in assay [10] (Nakaseomyces glabratus, ATCC 90030, time 18-24 hrs, read-out: MIC), 2.1 µM; in assay [11] (Pichia kudriavzevii, ATCC 6258, time 18-24 hrs, read-out: MIC), 2.1 µM. Moreover, the half-inhibitory concentration (IC50) in assay [5] was found to be 24 µM.
